{
  "source": "paper PMC3579217",
  "about": "(Journal of molecular biology, 2012)",
  "biological_target": "myrMA (myristoylated M-PMV matrix protein) (Mason-Pfizer monkey virus, UniProt P07567)",
  "sequence (P07567 2-118)": "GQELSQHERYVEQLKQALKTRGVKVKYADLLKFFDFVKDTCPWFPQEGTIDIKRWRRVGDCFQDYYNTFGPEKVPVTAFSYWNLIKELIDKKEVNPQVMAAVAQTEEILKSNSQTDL",
  "experiment": "1H/[…] HSQC NMR titration",
  "type": "binding",
  "data": [
    {"compound": "CCCCCCCC(=O)OC[C@H](COP(=O)(O)O[C@@H]1[C@H](O)[C@H](O)[C@@H](OP(=O)(O)O)[C@H](OP(=O)(O)O)[C@H]1O)OC(=O)CCCCCCC", "note": "[C8-PI(4,5)P2]", "values": [
      {"measurement": "Kd", "result": "92.8 ± 7.5", "unit": "µM"}
    ]}
  ]
}
